According to ChEMBL document CHEMBL4765481, “Sialyltransferase Inhibitors Suppress Breast Cancer Metastasis” (J Med Chem, 2021):
pIC50: −log10 of the molar value. Activity calls are given as the source filed them. The calls are words filed in the database; no cut-off is given here.

How the values were obtained:
[1] = Toxicity in BALB/c mouse xenografted with luciferase-tagged human MDA-MB-231 cells at 10 mg/kg/3 days, ip measured after 8 weeks by blood tests; type: organism-based; settings: in vivo, 1344 h
[2] = system: MDA-MB-231; assay: Inhibition of Sialyltransferase in human MDA-MB-231 cells assessed as reduction in NFkappaB Ser536 phosphorylation level at 10 to 20 uM incubated for 48 hrs by immunoblot analysis; type: cell-based; settings: dose 10-20 µM
[3] = system: MDA-MB-231; assay: Inhibition of serum-induced cell migration of human MDA-MB-231 cells at 20 uM incubated for 16 hrs by Boyden chamber assay; type: functional, cell-based
[4] = system: MDA-MB-231; assay: Antitumor activity against luciferase-tagged human MDA-MB-231 cells xenografted in BALB/c mouse assessed as reduction in number of metastatic foci in lungs at 10 mg/kg/3 days, ip measured after 8 weeks by histological analysis; type: functional, organism-based
[5] = system: MDA-MB-231; assay: Antitumor activity against luciferase-tagged human MDA-MB-231 cells xenografted in BALB/c mouse assessed as reduction in metastatic nodules in lymph node at 10 mg/kg/3 days, ip measured after 8 weeks by H and E staining based histological analysis; type: functional, organism-based
[6] = system: MDA-MB-231; assay: Inhibition of Sialyltransferase in human MDA-MB-231 cells assessed as reduction in integrin isoforms expression (alphaV/alpha5/beta1/beta3/beta4/beta5) at 10 to 20 uM incubated for 48 hrs by immunoblot analysis; type: cell-based; settings: dose 10-20 µM
[7] = system: MDA-MB-231; assay: Inhibition of Sialyltransferase in human MDA-MB-231 cells assessed as decrease p-talin-1 association with integrins beta1 and beta 3 after 48 hrs by immunofluorescence and coimmunoprecipitation assay; type: cell-based
[8] = species on record: Rattus norvegicus; assay: Selectivity ratio of inhibition of rat alpha-2,3-O-ST3GALI at 500 uM to IC50 for inhibition of rat alpha-2,3-N-ST3GALIII
[9] = species on record: Danio rerio; assay: Antiangiogenic activity in transgenic zebrafish embryos assessed as suppression of intersegmental vessels formation at 20 uM measured at 30 hrs postfertilization by fluorescence microscopy; type: functional, organism-based
[10] = molecular target: T1, Sialyltransferase ST3Gal-I (Rattus norvegicus) (UniProt Q6H8N0); assay: Inhibition of rat alpha-2,3-O-ST3GALI assessed as reduction in sialylated-product formation at 1 mM using p-nitrophenyl T-antigen and CMP-NeuSAc incubated for 15 mins by reverse-phase HPLC analysis relative to control
T1 sequence (whole entry): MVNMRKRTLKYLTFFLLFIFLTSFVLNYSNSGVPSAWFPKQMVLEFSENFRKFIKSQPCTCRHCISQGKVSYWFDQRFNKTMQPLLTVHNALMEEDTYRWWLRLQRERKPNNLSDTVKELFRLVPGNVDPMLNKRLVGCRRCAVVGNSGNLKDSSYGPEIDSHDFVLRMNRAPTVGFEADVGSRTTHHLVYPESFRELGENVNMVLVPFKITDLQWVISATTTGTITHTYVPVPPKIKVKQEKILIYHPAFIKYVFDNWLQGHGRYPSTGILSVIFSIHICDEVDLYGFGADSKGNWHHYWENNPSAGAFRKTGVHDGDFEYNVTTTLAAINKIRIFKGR

[11] = system: MDA-MB-231; assay: Inhibition of Sialyltransferase in human MDA-MB-231 cells assessed as reduction in paxillin Tyr118 phosphorylation level at 10 to 20 uM incubated for 48 hrs by immunoblot analysis; type: cell-based; settings: dose 10-20 µM
[12] = system: MDA-MB-231; assay: Inhibition of Sialyltransferase in human MDA-MB-231 cells assessed as reduction in FAK Tyr925 phosphorylation level at 10 to 20 uM incubated for 48 hrs by immunoblot analysis; type: cell-based; settings: dose 10-20 µM
[13] = system: MDA-MB-231; assay: Antiangiogenesis activity against luciferase-tagged human MDA-MB-231 cells xenografted in BALB/c mouse assessed as reduction in cell proliferation by measuring Ki67 expression at 10 mg/kg/3 days, ip measured after 8 weeks by immunostaining; type: functional, organism-based
[14] = species on record: Danio rerio; assay: Antiangiogenic activity in transgenic zebrafish embryos assessed as suppression of caudal vein plexus formation at 20 uM measured at 30 hrs postfertilization by fluorescence microscopy; type: functional, organism-based
[15] = system: MDA-MB-231; assay: Inhibition of Sialyltransferase in human MDA-MB-231 cells assessed as suppression of sialylation of integrin subunit beta1/beta3/beta4/beta5 at 10 to 20 um after 48 hrs by Western blot analysis; type: cell-based; settings: dose 10-20 µM
[16] = system: MDA-MB-231; assay: Inhibition of Sialyltransferase in human MDA-MB-231 cells assessed as reduction in FAK Tyr397 phosphorylation level at 10 to 20 uM incubated for 48 hrs by immunoblot analysis; type: cell-based; settings: dose 10-20 µM
[17] = Toxicity in BALB/c mouse xenografted with luciferase-tagged human MDA-MB-231 cells assessed as effect on body weight at 10 mg/kg/3 days, ip measured after 8 weeks; type: organism-based; settings: in vivo, 1344 h
[18] = molecular target: T1, Sialyltransferase ST3Gal-I (Rattus norvegicus); assay: Inhibition of rat alpha-2,3-O-ST3GALI assessed as reduction in sialylated-product formation at 500 uM using p-nitrophenyl T-antigen and CMP-NeuSAc incubated for 15 mins by reverse-phase HPLC analysis relative to control
[19] = system: MDA-MB-231; assay: Inhibition of Sialyltransferase in human MDA-MB-231 cells assessed as reduction in IkappaB-alpha Ser32 phosphorylation level at 10 to 20 uM incubated for 48 hrs by immunoblot analysis; type: cell-based; settings: dose 10-20 µM
[20] = system: MDA-MB-231; assay: Antitumor activity against luciferase-tagged human MDA-MB-231 cells xenografted in BALB/c mouse assessed as induction of tumor suppression at 10 mg/kg/3 days, ip measured after 8 weeks; type: functional, organism-based
[21] = species on record: Rattus norvegicus; assay: Selectivity ratio of inhibition of rat alpha-2,3-O-ST3GALI at 1000 uM to IC50 for inhibition of rat alpha-2,3-N-ST3GALIII
[22] = Toxicity in human MDA-MB-231 cells assessed as cell survival at >60 uM relative to control; type: cell-based; settings: read-out: Survival
[23] = molecular target: T2, Beta-galactoside alpha-2,6-sialyltransferase 1 (Homo sapiens, UniProt P15907); assay: Inhibition of human alpha-2,6-ST6GAL1 assessed as reduction in sialylated-product formation using Gal-beta1-4GlcNac and CMP-NeuSAc incubated for 15 mins by reverse-phase HPLC analysis
T2 sequence (P15907 whole entry): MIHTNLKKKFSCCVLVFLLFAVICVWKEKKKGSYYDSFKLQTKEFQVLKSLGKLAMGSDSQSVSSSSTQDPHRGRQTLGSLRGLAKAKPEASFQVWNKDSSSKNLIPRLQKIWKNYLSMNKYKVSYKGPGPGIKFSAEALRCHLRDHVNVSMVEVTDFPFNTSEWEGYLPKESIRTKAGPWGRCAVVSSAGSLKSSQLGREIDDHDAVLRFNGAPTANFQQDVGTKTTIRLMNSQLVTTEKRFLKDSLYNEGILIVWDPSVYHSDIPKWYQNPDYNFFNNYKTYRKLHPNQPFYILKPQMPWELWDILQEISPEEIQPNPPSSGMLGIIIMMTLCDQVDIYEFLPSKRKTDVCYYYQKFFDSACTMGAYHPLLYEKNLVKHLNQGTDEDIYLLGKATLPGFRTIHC

[24] = system: MDA-MB-231; assay: Antitumor activity against luciferase-tagged human MDA-MB-231 cells xenografted in BALB/c mouse assessed as induction of delayed lung metastasis at 10 mg/kg/3 days, ip measured after 8 weeks; type: functional, organism-based
[25] = system: MDA-MB-231; assay: Inhibition of Sialyltransferase in human MDA-MB-231 cells assessed as reduction in FAK Tyr576/577 phosphorylation level at 10 to 20 uM incubated for 48 hrs by immunoblot analysis; type: cell-based; settings: dose 10-20 µM

With C[C@H](CCC(=O)OCCOCCOCCN=[N+]=[N-])[C@H]1CC[C@H]2[C@@H]3CC[C@@H]4C[C@H](OC(=O)[C@H](CC(=O)O)Nc5ccc([N+](=O)[O-])c6nonc56)CC[C@]4(C)[C@H]3CC[C@]12C the Activity [1] was “Non-Toxic”, the inhibition [2] was “Active” and the inhibition [3] was “Active”. The Activity [4] was “Active”, the Activity [5] was “Active” and the inhibition [6] was “Dose-dependent effect”. The inhibition [7] was “Dose-dependent effect”, the Selectivity ratio [8] was greater than 287 and the Activity [9] was “Active”. The inhibition [10] was 60%, the inhibition [11] was “Dose-dependent effect” and the inhibition [12] was “Dose-dependent effect”. For the same compound, the Activity [13] was “Active”, the Activity [14] was “Active” and the inhibition [15] was “Active”. For the same compound, the inhibition [16] was “Dose-dependent effect”, the Activity [17] was “Non-Toxic” and the inhibition [18] was 0%. The inhibition [19] was “Active”, the Activity [20] was “Active” and the Selectivity ratio [21] was less than 575. For the same compound, the viability [22] was greater than 90%, the pIC50 [23] was 5.44 and the Activity [24] was “Active”. The inhibition [25] was “Dose-dependent effect”.
